The values that follow are results of earlier work, collected in patent publication US20090170823A1, “Dosage Regimens and Pharmaceutical Compositions and Packages for Emergency Contraception” (Duramed Pharmaceuticals, Inc., priority 2007, published 2009).

Molecules are shown by their SMILES.

For the data set the following is noted: relative to 30 μg ethinyl estradiol; see EP 0 253 607.

Consider `C[C@]12CC[C@@H]3c4ccc(O)cc4CC[C@H]3[C@@H]1CC[C@@H]2O` [17β-estradiol], for which the “amount roughly equivalent to 30 μg of ethinyl estradiol” value was ~2,000 μg. As for `C#C[C@]1(O)CC[C@H]2[C@@H]3CCc4cc(OC)ccc4[C@H]3CC[C@@]21C` [mestranol], the amount roughly equivalent to 30 μg of ethinyl estradiol is roughly 60 µg.
